The text below walks through data of US6010851A, “Method for producing nucleoside-5'-phosphate ester” (Ajinomoto Co., Inc., priority 1995, dated 2000).

Like-named read-outs stand apart in the source and are kept apart here.

For series [1], the target named is T1, acid phosphatase derived from Morganella morganii (Morganella morganii, UniProt P28581).
T1 construct: homo-oligomer of about 25 kDa subunits; 20-residue signal peptide removed
T1 sequence (P28581 21-249): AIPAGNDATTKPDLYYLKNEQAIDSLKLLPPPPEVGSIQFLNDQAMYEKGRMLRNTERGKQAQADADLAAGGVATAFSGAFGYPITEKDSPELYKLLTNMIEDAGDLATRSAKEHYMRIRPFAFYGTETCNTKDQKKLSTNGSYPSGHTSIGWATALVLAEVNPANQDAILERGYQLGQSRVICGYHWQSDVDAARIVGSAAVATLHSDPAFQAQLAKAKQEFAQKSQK
The series is classed as biochemical.

Series [2] has as its target T2, acid phosphatase derived from Escherichia blattae (Shimwellia blattae, UniProt I2BB71).
T2 construct: homo-oligomer; 18-residue signal peptide removed
T2 sequence (I2BB71 19-249): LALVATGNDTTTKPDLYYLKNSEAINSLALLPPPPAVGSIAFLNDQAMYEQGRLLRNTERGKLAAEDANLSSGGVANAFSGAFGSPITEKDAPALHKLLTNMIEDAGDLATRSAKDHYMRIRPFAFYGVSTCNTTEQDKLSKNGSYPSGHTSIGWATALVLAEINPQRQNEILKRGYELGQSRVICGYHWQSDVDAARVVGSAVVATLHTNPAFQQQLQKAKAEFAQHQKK
The series is classed as biochemical, Escherichia blattae JCM 1650.

For series [3], the target named is T3, acid phosphatase sample derived from Morganella morganii (Morganella morganii, UniProt P28581).
T3 construct: homo-oligomer; signal peptide removed
The series can be described thus: Production of 5'-inosinic acid from various phosphate group donors by acid phosphatase sample. The series is classed as biochemical, Morganella morganii NCIMB 10466. To be noted: inosine 2 g/dl, phosphate group donor 10 g/dl, enzyme 50 units/dl, pH 4.0, 30° C., 3 hours. How it is done:
(§1) The reaction mixture was incubated at 30° C. for 3 hours while maintaining pH at 4.0.

Series [4] deals with T4, acid phosphatase sample derived from Escherichia blattae (Shimwellia blattae, UniProt I2BB71).
T4 construct: homo-oligomer; signal peptide removed
The description is as above. Particulars: inosine 2 g/dl, phosphate group donor 10 g/dl, enzyme 50 units/dl, pH 4.0, 35° C., 3 hours. The class given is biochemical, Escherichia blattae JCM 1650. On the procedure:
The reaction miture was incubated at 35° C. for 3 hours while maintaining pH at 4.0.

Series [5] relates to Escherichia coli JM109/pEPI330. The series can be described thus: Production of 5'-inosinic acid from various phosphate group donors by microbial cells of the mutant strain. The class given is cell-based. Particulars: inosine 6 g/dl, phosphate group donor 12 g/dl, cells 200 mg/dl dry weight, pH 4.0, 35° C., 32 hours. An excerpt:
(§2) 5'-Inosinic acid was efficiently produced and accumulated by using any of the phosphate group donors. However, the accumulated amount of 5'-inosinic acid was the highest when polyphosphoric acid was used as the phosphate group donor.

Series [6] relates to Escherichia coli JM109/pMPI530. The description is as above. To be noted: inosine 6 g/dl, phosphate group donor 10 g/dl, cells 100 mg/dl dry weight, buffer pH 4.5, pH maintained at 4.0, 30° C., 22 hours. The class given is cell-based.
Excerpt: as §2

Series [7] has as its target T3, acid phosphatase sample derived from Morganella morganii. The series can be described thus: Phosphorylation reaction of various nucleosides by acid phosphatase sample. Particulars: sodium pyrophosphate 10 g/dl, nucleoside 2 g/dl, enzyme 50 units/dl, pH 4.0, 30° C., 3 hours. The class given is biochemical, Morganella morganii NCIMB 10466. How it is done: (§3) Incidentally, in the reaction to produce nucleoside-5'-phosphate esters using nucleosides other than inosine as raw materials, the nucleosides as raw materials and produced nucleoside-5'-phosphate esters were analyzed by HPLC as described above.
Sodium pyrophosphate (10 g/dl) and inosine (2 g/dl) were dissolved in sodium acetate buffers each having pH of 5.5, 5.0, 4.5, 4.0, and 3.5, to which the enzyme sample described above was added so that a concentration of 50 units/dl was obtained. […] Produced inosinic acid contained only 5'-inosinic acid. By-production of 2'-inosinic acid and 3'-inosinic acid was not observed at all. The velocity of 5'-inosinic acid production was maximum at pH 5.0. However, the maximum accumulated amount of 5'-inosinic acid was higher at lower pH. The reaction condition at pH 4.0 was most efficient for production of 5'-inosinic acid, in which 5'-inosinic acid was produced and accumulated in an amount of 2.60 g/dl by performing the reaction for 3 hours.
as §1

Series [8] deals with T4, acid phosphatase sample derived from Escherichia blattae. The series is described as above. The class given is biochemical, Escherichia blattae JCM 1650. Particulars: sodium pyrophosphate 15 g/dl, enzyme 50 units/dl, 3 hours; for Produced amount of nucleoside-5'-ester: nucleoside 3 g/dl, pH 4.0, 35° C. On the procedure:
as §3
Sodium pyrophosphate (15 g/dl) and inosine (3 g/dl) were dissolved in sodium acetate buffers each having pH of 5.5, 5.0, 4.5, 4.0, and 3.5, to which the enzyme sample described above was added so that a concentration of 50 units/dl was obtained. […] Produced inosinic acid contained only 5'-inosinic acid. By-production of 2'-inosinic acid and 3'-inosinic acid was not observed at all. The velocity of 5'-inosinic acid production was maximum at pH 5.0. However, the maximum accumulated amount of 5'-inosinic acid was higher at lower pH. The reaction condition at pH 4.0 was most efficient for production of 5'-inosinic acid. 5'-Inosinic acid was produced and accumulated in an amount of 1.56 g/dl by performing the reaction at 30° C. at pH 4.0 for 3 hours.
The reaction mixture was incubated at 35° C. for 3 hours while maintaining pH at 4.0.

In series [9] the test system is Escherichia coli JM109/pEPI330. Nature of the series: Production of various nucleoside-5'-phosphate esters by microbial cells of the mutant strain. The class given is cell-based. Particulars: sodium pyrophosphate 12 g/dl, nucleoside 6 g/dl, cells 200 mg/dl dry weight, pH 4.0, 35° C., 32 hours. An excerpt:
(§4) Produced nucleotide contained only nucleoside-5'-phosphate ester. By-production of nucleoside-2'-phosphate ester and nucleoside-3'-phosphate ester was not observed at all.

In series [10] the test system is Escherichia coli JM109/pMPI530. The description is as above. The class given is cell-based. Particulars: sodium pyrophosphate 12 g/dl, nucleoside 6 g/dl, cells 100 mg/dl dry weight, pH 4.0, 30° C., 22 hours.
Excerpt: as §4

Series [11] is described as follows: Phosphomonoesterase activity (inosine produced by hydrolysis of 5'-inosinic acid). The series is classed as biochemical. To be noted: purified Morganella morganii enzyme. How it is done: The phosphomonoesterase activity was measured under the following condition using 5'-inosinic acid as a substrate. The reaction was performed at 30° C. for 10 minutes in a reaction solution (1 ml) containing 10 μmol/ml of 5'-inosinic acid, 100 μmol/ml of MES/NaOH buffer (pH 6.0), and an enzyme. The reaction was stopped by adding 200 μl of 2 N hydrochloric acid. After that, precipitates were removed by centrifugation. Then, inosine produced by the hydrolytic reaction was quantitatively measured. An amount of enzyme to produce 1 μmol of inosine per 1 minute under this standard reaction condition was defined as 1 unit.
Inosine and 5'-inosinic acid were analyzed under the following condition by means of high-performance liquid chromatography (HPLC).

The nature of series [12]: Properties of the purified acid phosphatase derived from Morganella morganii. The arrangement: species or system Morganella morganii NCIMB 10466. How it is done: A nutrient medium (pH 7.0, 50 ml) containing 1 g/dl of peptone, 0.5 g/dl of yeast extract, and 1 g/dl of sodium chloride was poured into Sakaguchi flasks (500 ml), which was sterilized at 120° C. for 20 minutes. A slant culture of Morganella morganii NCIMB 10466 was inoculated to each of the flasks once with a platinum loop, which was cultivated at 30° C. for 16 hours with shaking. Microbial cells (about 3,000 g), which were harvested from a culture by centrifugation, were suspended in 100 mM potassium phosphate buffer (1 L, pH 7.0). A ultrasonic treatment was performed at 4° C. for 20 minutes to disrupt the microbial cells. The treated suspension was centrifuged to remove its insoluble fraction. Thus a cell-free extract was prepared.
The purified enzyme had the following properties.

The mark [13] stands for this setting: purified Escherichia blattae enzyme.
The mark [14] stands for this setting: purified Morganella morganii enzyme.

Regarding `O=C(O)CI` [iodoacetic acid], the “Effect of the addition of metal ion and inhibitor on enzyme activity” value in series [1] and in [2] was “inhibited” each time.

`[Fe+2]` [Fe^2+]: the “Effect of the addition of metal ion and inhibitor on enzyme activity” value in series [2] (setting [13]) is given as “inhibited”.

`O=P(O)(O)OP(=O)(O)OP(=O)(O)O` [Sodium tripolyphosphate, sodium tripolyphosphate]: the “Produced 5'-inosinic acid” value in series [3] stood at 2.10 g/dL; in series [4] it was 1.20 g/dL; in [5], 5.96 g/dL; in series [6], 8.93 g/dL.

Regarding `O=c1ccn([C@@H]2O[C@H](CO)[C@@H](O)[C@H]2O)c(=O)[nH]1` [Uridine, uridine], the “Produced amount of nucleoside-5'-ester” value stood at 1.30 g/dL in series [7] and 1.87 g/dL in series [8]. For the same molecule, the “Produced amount of nucleoside-5'-phosphate ester” value was 8.93 g/dL in [9] and 11.90 g/dL in series [10].

`OC[C@H]1O[C@@H](n2cnc3c(O)ncnc32)[C@H](O)[C@@H]1O` [Inosine, inosine]: the entries for the “Produced amount of nucleoside-5'-ester” value in series [7] and in series [8] were 2.60 g/dL and 1.56 g/dL, respectively. Also, the “5'-inosinic acid produced and accumulated” value in series [8] (inosine 3 g/dl, pH 4.0, 30° C.) was 1.56 g/dL. Also, the “Produced amount of nucleoside-5'-phosphate ester” value was found to be 7.45 g/dL in series [9] and 10.01 g/dL in series [10].

With `[Cu+2]` [Cu^2+], the “Effect of the addition of metal ion and inhibitor on enzyme activity” value in series [1] (setting [14]) and in [2] (setting [13]) was “inhibited” in each case.

`NC(=O)OP(=O)([O-])[O-].[Na+].[Na+]` [Disodium carbamyl phosphate, disodium carbamyl phosphate]: the “Produced 5'-inosinic acid” value in [3] was found to be 2.54 g/dL; in series [4], 1.53 g/dL; in [5], 7.73 g/dL; in series [6], 9.89 g/dL.

Turning to `[Ag+2]` [Ag^2+], the “Effect of the addition of metal ion and inhibitor on enzyme activity” value in series [1] (setting [14]) and in series [2] (setting [13]) was “inhibited” in each case.

`Nc1ccn([C@@H]2O[C@H](CO)[C@@H](O)[C@H]2O)c(=O)n1` [Cytidine, cytidine]: the “Produced amount of nucleoside-5'-ester” value in series [7] stood at 0.98 g/dL; in [8] it was 1.22 g/dL. For the same molecule, the “Produced amount of nucleoside-5'-phosphate ester” value in series [9] was determined as 6.60 g/dL; in series [10], 7.82 g/dL.

As to `O=P([O-])([O-])Oc1ccccc1.[Na+].[Na+]` [Disodium phenylphosphate, disodium phenylphosphate], the “Produced 5'-inosinic acid” value was determined as 2.33 g/dL in [3], 1.50 g/dL in series [4], 7.60 g/dL in series [5] and 9.62 g/dL in series [6].

On to `Nc1nc2c(ncn2[C@@H]2O[C@H](CO)[C@@H](O)[C@H]2O)c(=O)[nH]1` [Guanosine, guanosine], for which the figures for the “Produced amount of nucleoside-5'-ester” value in [7] and in series [8] were 1.90 g/dL and 1.05 g/dL, respectively. For the same molecule, the figures for the “Produced amount of nucleoside-5'-phosphate ester” value in [9] and in [10] were 4.77 g/dL and 6.72 g/dL, respectively.

Consider sodium polyphosphate, for which the “Produced 5'-inosinic acid” value in [3] was determined as 2.72 g/dL; in [4] it was 1.79 g/dL; in series [5] it was 8.84 g/dL; in series [6], 11.45 g/dL.

In the case of `[Pb+2]` [Pb^2+], the “Effect of the addition of metal ion and inhibitor on enzyme activity” value in series [1] (setting [14]) and in series [2] (setting [13]) was “inhibited” in each case.

As for `[Hg+2]` [Hg^2+], the “Effect of the addition of metal ion and inhibitor on enzyme activity” value in series [1] (setting [14]) and in series [2] (setting [13]) was “inhibited” in each case.

B1: acid phosphatase derived from Morganella morganii: enzyme purified from cell-free extract of Morganella morganii NCIMB 10466; mature protein SEQ ID NO: 4 (protein)
chain: T1 sequence (P28581 21-249)
Take B1: the “phosphate ester hydrolytic activity (phosphomonoestrase activity) relative to transphosphorylation activity” value in series [11] is listed as “not less than 20 times”. Besides, the Optimum temperature entry in series [12] was “about 35 °C”. Moreover, the “Optimum pH” value in [12] (phosphate ester hydrolytic reaction) worked out at 6.5; in series [12] (transphosphorylation reaction), 5.2. For the same molecule, the Temperature stability result in series [12] (treatment at pH 7.0 for 30 minutes) is “up to 30 °C”.
